# According to US6989148B2, “Treatment of diabetes” (priority 1994, dated 2006):
# Entries after “also recorded” stand apart in the source; their conditions may differ.
# Tests used:
# Type II diabetics = details: Gutniak et al. (1992), WO93/18786; cited from earlier work
# humans and other mammals = details: Wettergren et al. (1993); cited from earlier work
# [1] = system: subjects with remission phase Type I diabetes; assay: Sustacal meal with intravenous GLIP infusion 1.2 pm/kg/min (Example 1); assay type: in vivo, human
# Protocol: 7 subjects with remission phase Type I diabetes were studied after ingestion of a standardised meal of Sustacal (Upjohn) (delivering […]). Subjects continued their normal insulin treatment programme on the day prior to the test and, on the day of the test, omitted their morning insulin injection and arrived fasting at 8:00 am. […] Infusion was continued for 120 minutes. Blood levels of glucose, C-peptide, gastrin, glucagon and HPP were monitored by standard radioimmunoassay methods in samples taken before and at intervals during the study, up to 180 minutes. On another test day, subjects were given the Sustacal meal alone and the same analytes were similarly monitored.
# Type 1 diabetic subject = assay: GLIP along with insulin before Sustacal meal, post-prandial glycaemia (Example 6); assay type: in vivo, human; details: 50 μg GLIP with 5 units insulin (half the usual dose) subcutaneously before meal; one subject; FIG. 6 Panel A
# Protocol: One Type 1 diabetic subject was given GLIP along with insulin and the effects on post-prandial glycaemia observed. The subject received 5 units of insulin and 50 μg GLIP as subcutaneous injections immediately prior to ingestion of a Sustacal meal as described in Example 1. Blood levels of GLIP were monitored by a standard radioimmunoassay method.
# [2] = system: subjects with remission phase Type I diabetes; assay: Intravenous glucose infusion with intravenous GLIP (Example 2); assay type: in vivo, human; details: IV GLIP 1.2 pm/kg/min for 60 min along with IV glucose 20 g over 60 min; FIG. 2
# Protocol: Four subjects with remission phase Type I diabetes were studied during intravenous glucose infusion. Subjects prepared for the tests as described in Example 1, but received an intravenous infusion of glucose (20 g over 60 min. constant rate)instead of the Sustacal meal. […] Blood levels of glucose and C-peptide were monitored as in Example 1.
# normal volunteers = assay: Sustacal meal preceded by subcutaneous GLIP injection in normal volunteers (Example 4); assay type: in vivo, human; details: subcutaneous GLIP (100 μg; b67 prints 1.00 μg) before Sustacal meal
# Text: Results are shown in FIG. 4. *indicates statistically significant differences between treatments (p<0.05).
# [3] = system: subjects with remission phase Type I diabetes; assay: Sustacal meal with infusion of 0.75 pm/kg/min GLIP versus saline (Example 3); assay type: in vivo, human; details: 0.75 pmol/kg/min GLIP along with Sustacal meal, versus saline control; FIG. 3
# Protocol: The test was conducted as described in Example 1 and blood glucose and C-peptide levels were measured. On a further test day, the subjects were studied during saline infusion after a similar Sustacal meal.
# Type I diabetic subjects = assay: Sustacal meal preceded by subcutaneous GLIP injection in Type I diabetics (Example 5); assay type: in vivo, human; details: 100 μg GLIP subcutaneously prior to test meal
# Text: 7 Type I diabetic subjects were studied.
# The results are shown in FIG. 5. *indicates statistically significant differences between treatments (p<0.05)
# [4] = IV infusion 1.2 pm/kg/min after Sustacal meal
substance,measurement,setting,value
Glucagon-like peptide 1(7-36)amide [GLIP],effect of combination with oral hypoglycaemic agents,Type II diabetics,synergistic effect
same,gastric emptying,humans and other mammals,delay of gastric emptying
same,blood levels of C-peptide,[1]; [4],prevented a significant increase in blood levels of C-peptide
same,plasma glucagon levels stimulated by the meal,[1]; [4],prevented the mean rise in plasma glucagon levels
same,secretion of pancreatic polypeptide (PP) after meal,"[1]; IV infusion 1.2 pm/kg/min after Sustacal meal, FIG. 1 Panel C",this response was absent during GLIP infusion
same,gastrin levels / gastrin response,"[1]; IV infusion 1.2 pm/kg/min after Sustacal meal, FIG. 1 Panel E",normal gastrin response; also recorded: not significantly affected
same,blood glucose level after a meal,"[1]; IV infusion 1.2 pm/kg/min for 120 min after Sustacal meal, FIG. 1 Panel A",excellent control of blood glucose level
same,blood glucose after Sustacal meal (maximum),Type 1 diabetic subject,≤ 8 mM
same,blood glucose level,[2],improved control of blood glucose level
same,secretion of endogenous insulin,[2],stimulated secretion of endogenous insulin
same,increase in blood levels of C-peptide,normal volunteers,delay in increase
same,increase in blood levels of HPP,normal volunteers,delay in increase
same,increase in blood levels of glucose,normal volunteers,delay in increase
same,increase in blood levels of insulin,normal volunteers,delay in increase
same,increase in blood glucose,[3],increase in glucose was less than in the control experiment
same,rise in C-peptide,[3],rise in C-peptide was similar to the control experiment
same,blood glucose levels compared to control,"Type I diabetic subjects; no morning insulin, FIG. 5 Panel A",lowering of blood glucose levels
same,pancreatic polypeptide (HPP) levels,Type I diabetic subjects; FIG. 5 Panel D,delayed rise in pancreatic polypeptide (HPP) levels
same,insulin secretion over control levels,Type I diabetic subjects; FIG. 5 Panels B and C,no enhancement of insulin secretion over control levels
